Assays:
Type in all cases: in vivo
4T1 tumor cells = test: 4T1 syngeneic mouse tumor model, PF-06873600 with checkpoint antibodies (Example 7)
Description: 4T1 cells were obtained from American Type Culture Collection (ATCC) and cultured in Roswell Park Memorial Institute (RPMI1640) supplemented with 10% fetal bovine serum (FBS). All cells were maintained in a humidified incubator at 37° C. with 5% carbon dioxide (CO2). Female C57/BL6 mice were obtained from Jackson Laboratories at 8 weeks of age. To generate the syngeneic model, 30,000 4T1 tumor cells were subcutaneously implanted into the right flank of […]. Tumor bearing mice were randomized into four treatment groups based on average tumor sizes of approximately 70 mm^3 per group. Study groups included vehicle, 30 mg/kg PF-06873600 (CDK 2/4/6 inhibitor) twice daily by oral gavage, combination of 10 mg/kg anti-PD-1 antibody (PF-06937004) with 5 mg/kg anti-OX40 antibody (PF-07201252) and with 3 mg/kg anti-4-1BB antibody (PF-07218859) all administered by IP injection, and the combination of PF-06873600, anti-PD-1 antibody, anti-OX40 antibody and anti-41-BB antibody dosed as described in the cohorts above. […]
(§1) Tumor volumes were measured three times a week. Tumor volume was calculated based on two-dimensional caliper measurement with cubic millimeter volume calculated using the formula (length×width2)×0.5. […] Statistical significance determined using the Holm-Sidak method, with alpha=0.05.

MC38 tumor cells [1] = test: MC38 syngeneic mouse tumor model, PF-06873600 with checkpoint antibodies (Example 2); details: for tumor growth inhibition (in words): MC38 model, day 27 post-treatment initiation; for CR % on day 27: complete response; for CR % on day 27 / TGI % on day 27: day 27, s.c. MC38 tumors in female C57/BL6 mice, doses as in Table 10; for TGI % on day 27: tumor growth inhibition
Description: MC38 cells were obtained from American Type Culture Collection (ATCC) and cultured in Roswell Park Memorial Institute (RPMI1640) supplemented with 10% fetal bovine serum (FBS). All cells were maintained in a humidified incubator at 37° C. with 5% carbon dioxide (CO2). Female C57/BL6 mice were obtained from Jackson Laboratories at 8 weeks of age. To generate the syngeneic model, 0.5 million MC38 tumor cells were subcutaneously implanted into the right flank of female C57/BL6 mice. Tumor bearing mice were randomized into nine treatment groups based on average tumor sizes of approximately 70 mm^3 per group, on Day 9 post tumor cell implantation. Study groups included vehicle, 30 mg/kg PF-06873600 (CDK 2/4/6 inhibitor) twice daily by oral gavage, avelumab (anti-PD-L1 antibody, PF-06834635) administered by intraperitoneal (IP) injection, 10 mg/kg, combination of avelumab administered at 10 mg/kg with anti-OX40 antibody (PF-07201252) administered at 5 mg/kg by IP injection, combination of anti-PD-L1 antibody administered at 10 mg/kg with anti-4-1BB antibody (PF-07218859) administered at 3 mg/kg by IP injection, combination of anti-PD-L1 antibody as described above with PF-06873600 administered at 30mg/kg twice daily by oral gavage, combination of anti-PD-L1 antibody and anti-OX40 antibody as described above with PF-06873600 administered at 30 mg/kg twice daily by oral gavage, combination of anti-PD-L1 antibody with anti-4-1BB antibody as described above with PF-06873600 administered at 30mg/kg twice daily by oral gavage and combination of anti-PD-L1 antibody, anti-OX40 antibody and anti-41-BB antibody as described above with PF-06873600 administered at 30 mg/kg twice daily by oral gavage. All antibodies were administered as three doses; one every three days after the study initiation. All antibody formulations are phosphate buffered saline based while PF-06873600 was administered in a 0.5% methocel/Tween suspension.
Tumor volumes were measured three times a week. Tumor volume was calculated based on two-dimensional caliper measurement with cubic millimeter volume calculated using the formula (length×width2)×0.5. Mice were sacrificed when the tumor volumes reached 2000 mm^3, which was the survival endpoint for this study. Survival curves were plotted using GraphPad Prism 7 software. Statistical significance determined using the Holm-Sidak method, with alpha=0.05.

MC38 tumor cells [2] = test: MC38 syngeneic mouse tumor model, palbociclib with checkpoint antibodies (Example 1)
Description: MC38 cells were obtained from American Type Culture Collection (ATCC) and cultured in Roswell Park Memorial Institute (RPMI1640) supplemented with 10% fetal bovine serum (FBS). All cells were maintained in a humidified incubator at 37° C. with 5% carbon dioxide (CO2). Female C57/BL6 mice were obtained from Jackson Laboratories at 8 weeks of age. To generate the syngeneic model, 0.5 million MC38 tumor cells were subcutaneously implanted into the right flank of female C57/BL6 mice. Tumor bearing mice were randomized into four treatment groups based on average tumor sizes of approximately 70 mm^3 per group, on Day 9 post tumor cell implantation. […]
as §1

Row | Molecule | tumor growth inhibition (in words) (4T1 tumor cells; 4T1 model, day 18 post-treatment initiation) | TGI % on day 27 (4T1 tumor cells; tumor growth inhibition, s.c. 4T1 tumors in female C57/BL6 mice, doses as in Table 16) [%] | tumor growth inhibition (in words) (MC38 tumor cells [1]) | CR % on day 27 (MC38 tumor cells [1]) [%] | TGI % on day 27 (MC38 tumor cells [1]) [%] | tumor growth inhibition (in words) (MC38 tumor cells [2]; MC38 model, day 27 post-treatment initiation) | TGI % on day 27 (MC38 tumor cells [2]; tumor growth inhibition, day 27, s.c. MC38 tumors in female C57/BL6 mice, doses as in Table 8) [%]
1 | C[C@@]1(O)CCC[C@H]1n1c(=O)c(C(F)F)cc2cnc(NC3CCN(S(C)(=O)=O)CC3)nc21 [PF-06873600, 6-(difluoromethyl)-8-((1R,2R)-2-hydroxy-2-methylcyclopentyl)-2-(1-(methylsulfonyl)piperidin-4-ylamino)pyrido[2,3-d]pyrimidin-7(8H)-one] | significantly inhibited tumor growth | 66 | did not significantly inhibit tumor growth | 0 | −7 | – | –
2 | CC(=O)c1c(C)c2cnc(Nc3ccc(N4CCNCC4)cn3)nc2n(C2CCCC2)c1=O [palbociclib, 6-acetyl-8-cyclopentyl-5-methyl-2-(5-piperazin-1-yl-pyridin-2-ylamino)-8H-pyrido[2,3-d]pyrimidin-7-one] | – | – | – | – | – | did not significantly inhibit tumor growth | 29
3 | PF-06834635: avelumab (anti-PD-L1 antibody, PF-06834635) | – | – | did not significantly inhibit tumor growth | 0 | 9 | – | –

Source: patent US20220241412A1, “COMBINATION THERAPIES USING CDK INHIBITORS” (Pfizer Inc., priority 2019, published 2022)
